Assay results: patent US20090312411A1, “PREVENTING OR REDUCING RISK OF MISCARRIAGES” (New York Society for the Raptured and Crippled Maintaining …, priority 2008, published 2009)

What was measured:
TF [1] = test: SM9-1 trophoblast TF immunohistochemistry with 1H1; assay type: cell-based, mouse; settings: SM9-1 cells incubated with sFlt-1 or monocyte supernatants, 72 hours; VEGF 500 pg/ml; pravastatin 5 μg/ml 3 hours prior
Procedure: (§1) Protocol. SM9-1 trophoblast cells, derived from a gestational day 9 Swiss-Webster mouse placenta (SM9-1) (Bowen et al., Biol Reprod 60:428-434.), were incubated with the supernatants from monocytes incubated with C5a containing high levels of sFlt-1 (Girardi et al., 2006, J Exp Med 203:2165-2175). Some SM9-1 cells were incubated in the presence of increasing amounts of mouse sFlt-1 (R&D Systems) (1000, 2000, 4000 and 8000 pg/ml). After 72 hours, cell proliferation was evaluated by light microscopy. Some SM9-1 cells were incubated with pravastatin (5 μg/ml) for 3 hours prior to incubation with sFlt-1. Mouse VEGF (500 pg/ml) (R&D systems) was added to some SM9-1 incubated with sFlt-1 or monocytes supernatants. Immunohistochemical identification of TF with 1H1 and superoxide production by DHE was performed on the SM9-1 cells after 72 hours of culture.
(§2) Protocol. SM9-1 trophoblast cells were prepared as described in Example 21. Isolated SM9-1 cells were incubated in the presence of increasing amounts of mouse sFlt-1 (R&D Systems) (1000, 2000, 4000 and 8000 pg/ml). After 72 hours, cell proliferation was evaluated by light microscopy. SM9-1 cells were also incubated with pravastatin (5 μg/ml) for 3 hours prior to incubation with sFlt-1. Immunohistochemical identification of TF with 1H1 and superoxide production by DHE was performed on the SM9-1 cells after 72 hours of culture as described above.

SM9-1 trophoblast cells [2] = test: SM9-1 trophoblast superoxide production by DHE; assay type: cell-based, mouse; settings: SM9-1 cells incubated with sFlt-1 or monocyte supernatants, 72 hours; VEGF 500 pg/ml; pravastatin 5 μg/ml 3 hours prior
Procedure: as §1, §2

SM9-1 trophoblast cells [3] = test: SM9-1 trophoblast cell proliferation, light microscopy; assay type: cell-based, mouse; settings: SM9-1 cells incubated with sFlt-1 or monocyte supernatants, 72 hours; VEGF 500 pg/ml; pravastatin 5 μg/ml 3 hours prior
Procedure: as §1, §2

neutrophils [4] = test: Phagocytosis assay, latex beads, flow cytometry; assay type: in vivo, mouse
Procedure: Phagocytosis assay. Heparanized whole blood was incubated (1 h, 37° C., 5% CO2) with 1 μm of fluorescent yellow-green latex beads (Sigma-Aldrich) (ratio phagocyte/target 1:25) that had been preopsonized with normal mouse serum for 1 h. Internalization of beads was determined by flow cytometry using a FACSCalibur (BD Biosciences) flow cytometer.

[5] = test system: murine model of antiphospholipid syndrome (APS); test: Fetal resorption in murine model of APS (aPL-treated pregnant mice); assay type: in vivo; settings: uterus from a mouse treated with aPL+simvastatin, day 15, FIG. 3
Procedure: Protocol. […] The stock solution was diluted to the appropriate concentration in sterile PBS.
Protocol. Pregnant C57BL/6 mice were treated with IgG (10 mg i.p.) from a healthy non-autoimmune individual (NH-IgG), or different patients with APS (aPL-IgG) on days 8 and 12 of pregnancy. Mice were sacrificed on day 15 of pregnancy, uteri were dissected, fetuses were weighed, and frequency of fetal resorption calculated (number of resorptions/number of fetuses+number of resorptions).
Protocol. Pregnant mice were treated with pravastatin (0.2 μg/g bw=5 μg/mouse, i.p 18 hours prior to aPL or NHIgG injections on days 8 and 12). Pravastatin (Sigma Chemical, St Louis, Mo.) was dissolved in EtOH at a concentration of 10 mg/mL and diluted with NaCl 0.9% in a ratio of 1:1000 to yield a final concentration of 10 μg pravastatin per 1 mL carrier. The NaCl 0.9%-based carrier solution for the placebo group was prepared accordingly to include EtOH only (i.e., without pravastatin) at a concentration of 1:1000.

TF [6] = test: TF on peripheral blood neutrophils, two-color FACS; assay type: in vivo, mouse; settings: flow cytometry
Procedure: (§3) Protocol. To study the presence of TF on peripheral blood neutrophils, two-color FACS analysis was performed. For this purpose heparinized whole mouse blood was stained with FITC-labeled anti-mouse Ly-6G (Gr-1) for FL1 (BD Biosciences Pharmingen, CA) to identify neutrophils and biotinylated rat anti-mTF antibody 1H1 and streptavidin-PerCP (BD Biosciences Pharmingen, CA) as the FL3 fluorochrome. Red cells were lyzed with ACK buffer. Preparations were then incubated with SA-PerCP and analyzed by FACS using a FACscan (BD Biosciences, CA).

neutrophils [7] = test: Respiratory burst activity (ROS) in neutrophils, DHR flow cytometry; assay type: in vivo, mouse
Procedure: Respiratory burst activity in neutrophils. Intracellular reactive oxygen (ROS) production was assessed with dihydrorhodamine 123 (DHR, Sigma Chemical, St Louis, Mo.) by flow cytometry. This primarily non-fluorescent dye becomes fluorescent upon oxidation to rhodamine by ROS produced during the respiratory burst. DHR (10 μmol/L) was added to heparanized whole blood, and this mixture was incubated at 37° C. for 45 min. Red cells were lysed as described above and reactive-oxygen production was analyzed by […] in FL1.

PAR-2 = PAR-2 on peripheral blood neutrophils, two-color FACS; assay type: in vivo, mouse
Procedure: as §3, with “Protocol. […] expression on mouse neutrophils.” for “Protocol.”, “PAR-2” for “TF”, “anti-PAR-2” for “rat anti-mTF”, “(Santa Cruz Biotechnology, Inc, Santa Cruz, Calif.)” for “1H1”

monocytes = test: sFlt-1 release by monocytes in vitro (ELISA); assay type: cell-based, mouse; settings: 10 nM C5a for 4 h; pravastatin 5 μg/ml for 3 hours prior to C5a
Procedure: Protocol. Mice with a selective deletion of the TF gene in myeloid cells (TF^floxed/floxed/LysM-Cre mice) (Redecha et al., supra), were used for isolation of monocytes to study sVEGFR-1 production in vitro. Blockade of TF was carried out as in Example 17 by i.p. injections of anti-mTF antibody 1H1.
Protocol. Splenocytes were prepared from non pregnant CBA/J female mice and incubated for 4 h in culture medium supplemented with 10% inactivated fetal bovine serum (FBS). Non adherent cells were removed and adherent cells (>95% peroxidase-positive) were incubated in culture medium with the addition of 10 nM mouse recombinant C5a. A group of adherent monocytes was treated for 3 hours with pravastatin (5 μg/ml) prior to incubation with C5a. After 4 h of incubation with C5a, culture supernatants were collected and analyzed for sVEGFR-1 by ELISA (R&D Systems).

VEGF
TF staining / expression (TF [1]): prevented TF expression
superoxide production / oxidative damage (DHE) (SM9-1 trophoblast cells [2]): prevented oxidative damage
cell proliferation / cell growth (SM9-1 trophoblast cells [3]): restored cell proliferation

CCC(C)(C)C(=O)O[C@H]1C[C@@H](C)C=C2C=C[C@H](C)[C@H](CC[C@@H]3C[C@@H](O)CC(=O)O3)[C@H]21 [Simvastatin, simvastatin]
Phagocytosis (neutrophils [4]; aPL + Simvastatin): 16.2 ± 2.9 % of positive cells
Phagocytosis (neutrophils [4]; treatment given alone): 18.7 ± 1.0 % of positive cells
viable fetuses in uterus [5]: 7
TF (TF [6]; aPL + Simvastatin): 10 ± 5.7 % of positive cells
TF (TF [6]; treatment given alone): 6.6 ± 2.2 % of positive cells
ROS (neutrophils [7]; aPL + Simvastatin): 10.4 ± 5.4 % of positive cells
ROS (neutrophils [7]; treatment given alone): 10.4 ± 4.5 % of positive cells
PAR-2 (number of PAR-2 positive cells) (PAR-2; aPL + simvastatin): 7.4 ± 3.9
PAR-2 (number of PAR-2 positive cells) (PAR-2; treatment given alone): 6.9 ± 2.3

B1: sFlt-1: soluble form of the VEGF-1 receptor, antiangiogenic molecule that sequesters VEGF (R&D Systems) (protein)
chain: YGSGSKLKVPELSLKGTQHVMQAGQTLFLKCRGEAAHSWSLPTTVSQEDKRLSITPPSACGRDNRQFCSTLTLDTAQANHTGLYTCRYLPTSTSKKKKAESSIYIFVSDAGSPFIEMHTDIPKLVHMTEGRQLIIPCRVTSPNVTVTLKKFPFDTLTPDGQRITWDSRRGFIIANATYKEIGLLNCEATVNGHLYQTNYLTHRQTNTILDVQIRPPSPVRLLHGQTLVLNCTATTELNTRVQMSWNYPGKATKRASIRQRIDRSHSHNNVFHSVLKINNVESRDKGLYTCRVKSGSSFQSFNTSVHVYEKGFISVKHRKQPVQETTAGRRSYRLSMKVKAFPSPEIVWLKDGSPATLKSARYLVHGYSLIIKDVTTEDAGDYTILLGIKQSRLFKNLTATLIVNVKPQIYEKSVSSLPSPPLYPLGSRQVLTCTVYGIPRPTITWLWHPCHHNHSKERYDFCTENEESFILDPSSNLGNRIESISQRMTVIEGTNKTVSTLVVADSQTPGIYSCRAFNKIGTVERNIKFYVTDVPNGFHVSLEKMPAEGEDLKLSCVVNKFLYRDITWILLRTVNNRTMHHSISKQKMATTQDYSITLNLVIKNVSLEDSGTYACRARNIYTGEDILRKTEVLVRDSEAPHLLQNLSDYEVSISGSTTLDCQARGVPAPQITWFKNNHKIQQEPGIILGPGNSTLFIERVTEEDEGVYRCRATNQKGAVESAAYLTVQGTSDKSNLE
TF staining / expression (TF [1]): Increased TF staining
superoxide production / oxidative damage (DHE) (SM9-1 trophoblast cells [2]): increased superoxide production
cell proliferation / cell growth (SM9-1 trophoblast cells [3]): diminished cell proliferation

B2: C5a: mouse recombinant C5a, complement component used to stimulate monocytes (protein, UniProt P06684 679-755, looked up)
C5a anaphylatoxin: NLHLLRQKIEEQAAKYKHSVPKKCCYDGARVNFYETCEERVARVTIGPLCIRAFNECCTIANKIRKESPHKPVQLGR
modifications: C5a anaphylatoxin
notes: mouse recombinant C5a, complement component used to stimulate monocytes
sFlt-1 released by monocytes (monocytes): 6749 ± 1927 pg/mL
